This note sets out measurements from patent US20100204187A1, “Purine Derivatives” (priority 2007, published 2010).

The structures appear in SMILES notation.

In this test the test system is C57BL/6J mice. Put plainly: Delayed-type hypersensitivity response (DTH), footpad swelling after sheep red blood cell challenge (Biological Assay 2). As to conditions: administered orally (p.o. once daily during sensitization and challenge phases), male C57BL/6J mice. The test is classed as in vivo. The procedure: Delayed-Type Hypersensitivity Response (DTH)
This assay was performed essentially as disclosed in Kudlacz E. et al, see supra. Male C57BL/6J mice received i.v. injections of 1×10^5 sheep red blood cells in a volume of 0.2 mL sterile phosphate buffered saline (PBS). Four days later, sensitized mice received an injection of 1×10^8 sheep red blood cells in a volume of 30 μL sterile PBS into the left footpad. Twenty-four hours later, animals were sacrificed and their footpads removed and weighted. The DTH swelling response was calculated by subtracting the right footpad weight (baseline) from that of the left footpad (experimental). Test compounds or vehicle (0.2% carboxymethylcellulose and 1% Tween 80 in water) were administered p.o. once daily during both sensitization and challenge phases of the DTH response. Compounds of examples 1 cc, 1cr, 1ct, 5u, 10h and 10p were active in this assay when administered orally.
With `COc1ccc(Nc2nc(-c3ccc(NC(C)=O)cc3)c3nc[nH]c3n2)cc1S(N)(=O)=O` [Example 1 cc, 6-(4-acetylamino)phenyl-2-(4-methoxy-3-aminosulfonylphenyl)amino-9H-purine], the “activity in DTH swelling response assay” value is “active”.

Consider `COc1ccc(Nc2nc(-c3cccc(S(C)(=O)=O)c3)c3nc[nH]c3n2)cc1OC` [Example 1cr, 2-(3,4-dimethoxyphenyl)amino-6-(3-methanesulfonyl)phenyl-9H-purine], for which the “activity in DTH swelling response assay” value is on record as “active”.

In the case of `CS(=O)(=O)c1cccc(-c2nc(Nc3ccc(CCO)cc3)nc3[nH]cnc23)c1` [Example 1ct], the “activity in DTH swelling response assay” value is “active”.

For `CCCN(C)c1ccc(-c2nc(Nc3ccc(N4CCOCC4)cc3)nc3[nH]cnc23)cn1` [Example 5u, 6-[(6-N-methylpropylamino)pyridin-3-yl]-2-[4-(4-morpholino)phenyl]amino-9H-purine], the “activity in DTH swelling response assay” value is on record as “active”.
